Results as given in ChEMBL document CHEMBL1201862, “PubChem BioAssay data set” (2004).
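Grown in 96-well plates, cells were treated for 48 hours with each compound at five concentrations. Insufficient inhibition: endpoint recorded as highest concentration tested. GI50 = concentration required for 50% inhibition of growth.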 Active and inactive are the calls of the source. Cut-off read from the data, not from the text of the source: active = GI50 up to about 1.1 µM and inactive = higher.

Experiments:
Experiment in all cases: DTP human tumour cell line panel, 48 h
PC-3 = test system: PC-3
DU-145 = test system: DU-145
TK-10 = test system: TK-10
Hs-578T = test system: Hs-578T
MDA-MB-435 = test system: MDA-MB-435
SN12C = test system: SN12C
CAKI-1 = test system: CAKI-1
SNB-75 = test system: SNB-75
IGROV-1 = test system: IGROV-1
UACC-257 = test system: UACC-257
NCI-H460 = test system: NCI-H460
CCRF-CEM = test system: CCRF-CEM
UO-31 = test system: UO-31
NCI-H226 = test system: NCI-H226
HL-60 = test system: HL-60
A549 = test system: A549
OVCAR-3 = test system: OVCAR-3
MOLT-4 = test system: MOLT-4
OVCAR-8 = test system: OVCAR-8
SK-OV-3 = test system: SK-OV-3
HCT-116 = test system: HCT-116
OVCAR-4 = test system: OVCAR-4
SK-MEL-2 = test system: SK-MEL-2
NCI-H522 = test system: NCI-H522
HCC 2998 = test system: HCC 2998
SF-295 = test system: SF-295
ACHN = test system: ACHN
HOP-62 = test system: HOP-62
HOP-92 = test system: HOP-92
M14 = test system: M14
SK-MEL-28 = test system: SK-MEL-28
COLO 205 = test system: COLO 205
SK-MEL-5 = test system: SK-MEL-5
RPMI-8226 = test system: RPMI-8226
NCI/ADR-RES = test system: NCI/ADR-RES
U-251 = test system: U-251
SNB-19 = test system: SNB-19
SR = test system: SR
LOX IMVI = test system: LOX IMVI
NCI-H23 = test system: NCI-H23
T47D = test system: T47D
K562 = test system: K562
MDA-MB-231 = test system: MDA-MB-231
MDA-N = test system: MDA-N
OVCAR-5 = test system: OVCAR-5
SW-620 = test system: SW-620
HT-29 = test system: HT-29
HCT-15 = test system: HCT-15
KM12 = test system: KM12
A498 = test system: A498

## CCP(=O)(CC)C(Cl)(Cl)C(=O)NC
PC-3
  GI50: > 100 µM (inactive)
DU-145
  GI50: > 100 µM (inactive)
TK-10
  GI50: > 100 µM (inactive)
Hs-578T
  GI50: > 100 µM (inactive)
MDA-MB-435
  GI50: > 100 µM (inactive)
SN12C
  GI50: > 100 µM (inactive)
CAKI-1
  GI50: > 100 µM (inactive)
SNB-75
  GI50: > 100 µM (inactive)
IGROV-1
  GI50: > 100 µM (inactive)
UACC-257
  GI50: > 100 µM (inactive)
NCI-H460
  GI50: > 100 µM (inactive)
CCRF-CEM
  GI50: > 100 µM (inactive)
UO-31
  GI50: > 100 µM (inactive)
NCI-H226
  GI50: > 100 µM (inactive)
HL-60
  GI50: > 100 µM (inactive)
A549
  GI50: > 100 µM (inactive)
OVCAR-3
  GI50: > 100 µM (inactive)
MOLT-4
  GI50: > 100 µM (inactive)
OVCAR-8
  GI50: > 100 µM (inactive)
SK-OV-3
  GI50: > 100 µM (inactive)
HCT-116
  GI50: > 100 µM (inactive)
OVCAR-4
  GI50: > 100 µM (inactive)
SK-MEL-2
  GI50: > 100 µM (inactive)
NCI-H522
  GI50: > 100 µM (inactive)
HCC 2998
  GI50: > 100 µM (inactive)
SF-295
  GI50: > 100 µM (inactive)
ACHN
  GI50: > 100 µM (inactive)
HOP-62
  GI50: > 100 µM (inactive)
HOP-92
  GI50: > 100 µM (inactive)
M14
  GI50: > 100 µM (inactive)
SK-MEL-28
  GI50: > 100 µM (inactive)
COLO 205
  GI50: > 100 µM (inactive)
SK-MEL-5
  GI50: > 100 µM (inactive)
RPMI-8226
  GI50: > 100 µM (inactive)
NCI/ADR-RES
  GI50: > 100 µM (inactive)
U-251
  GI50: > 100 µM (inactive)
SNB-19
  GI50: > 100 µM (inactive)
SR
  GI50: > 100 µM (inactive)
LOX IMVI
  GI50: > 100 µM (inactive)
NCI-H23
  GI50: > 100 µM (inactive)
T47D
  GI50: > 100 µM (inactive)
K562
  GI50: > 100 µM (inactive)
MDA-MB-231
  GI50: > 100 µM (inactive)
MDA-N
  GI50: > 100 µM (inactive)
OVCAR-5
  GI50: > 100 µM (inactive)
SW-620
  GI50: > 100 µM (inactive)
HT-29
  GI50: > 100 µM (inactive)
HCT-15
  GI50: > 100 µM

## CNc1ccc(C(=O)CC(O)CCC(C)C2OC(=O)CC(O)CC(=O)CC(O)CC(O)CC(O)CC(O)CC3(O)CC(O)C(C(=O)NCCN4CCCCC4)C(CC(OC4OC(C)C(O)C(N)C4O)\C=C/C=C\C=C/C=C/C=C/C=C\C=C/C2C)O3)cc1 (centres undefined)
MDA-MB-435
  GI50: 1.01 µM (active)
KM12
  GI50: 1.82 µM (inactive)
A498
  GI50: 0.288 µM (active)
HL-60
  GI50: 3.88 µM (inactive)
SR
  GI50: 0.272 µM (active)
K562
  GI50: 2.07 µM (inactive)
